Tests used:
total ATXN3 protein = assay: ATXN3 total protein assay (Mesoscale Discovery); format: cell-based; settings: Human neuroblastoma SK-N-MC cells, 48 hours incubation, MSD assay
Protocol: Human neuroblastoma SK-N-MC cells were seeded at 10,000 cells/well in 384 well plates one day prior to compound treatment. The concentrations of compounds were tested at appropriate doses ranging from 30 µM to 0.6 nM. After incubation for 48 hours, the cells were lysed with 25.L of lysis buffer containing protease inhibitors, and total ATXN3 protein levels were assessed by Mesoscale Discovery (MSD) assay developed with one pair of and-ATXN3 antibodies. The capture and detect antibodies were raised in mouse and rabbit respectively. Anti-rabbit MSD-ST antibody was used for secondary antibody.
ATXN3 recombinant protein was used for standards. The readouts were captured with 35.L of MSD read buffer and multi-array 384-well high binding plates.

[1] = system: ATXN3 transcripts containing exon 4; assay: ATXN3 quantitative splicing assay (qPCR, E4E5 transcripts containing exon 4); format: cell-based; settings: Human neuroblastoma SK-N-MC cells, 24 h treatment, qPCR primers/probe E4E5
Protocol: Human neuroblastoma SK-N-MC cells were plated in 384-well plates at 20,000 cells/well. Twenty-four hours after plating, cells were treated with compounds for 24 h at appropriate concentrations ranging from 30 μM to 0.6 nM (0.3% DMSO). Treated cells were lysed in 15 μL of lysis buffer, and cDNA was synthesized using the Fast Advanced Cells-to-Ct kit. Two μL of each cDNA was used in qPCR reactions to confirm the exon 4 skipped transcripts of ATXN3. A second set of primers/probe E4E5 was used to detect the transcripts containing exon 4. The third set of primers/probe E8E9 was used to detect total gene level of ATXN3. The qPCR reactions were prepared in 384-well plates in 10.L volume, using TaqMan™ Fast Advanced Master Mix with primers and probes shown in the table below. Reactions were run in a Quant Studio 6 qPCR instrument with default settings.
The primers and probes are listed below in Table 5.

| Compound | IC50 (total ATXN3 protein) | IC50 [1] |
| --- | --- | --- |
| Cc1c(C[C@@H](N)CF)sc2c(NCc3cccs3)snc12 [Compound 10, 7-[(R)-2-amino-3-fluoropropyl]-8-methyl-4-thenylamino-3,6-dithia-2-azabicyclo[3.3.0]octa-1,4,7-triene] | 0.501 to 5 µM | 0.501 to 5 µM |
| C[C@H](F)[C@H](N)Cc1sc2c(NCc3nccs3)snc2c1Br [Compound 105, 7-[(2R,3S)-2-amino-3-fluorobutyl]-8-bromo-4-{[(1,3-thiazol-2-yl)methyl]amino}-3,6-dithia-2-azabicyclo[3.3.0]octa-1,4,7-triene] | 0.101 to 0.5 µM | 0.101 to 0.5 µM |
| COC(c1sc2c(NCc3cccs3)snc2c1Br)[C@H](C)N (stereo partly drawn) [Compound 114, 5-[(2S)-2-amino-1-methoxypropyl]-6-bromo-N-(thiophen-2-ylmethyl)thieno[3,2-c][1,2]thiazol-3-amine] | 10 to 40 µM | 10 to 40 µM |
| COC[C@H](N)Cc1sc2c(NCc3ccco3)snc2c1Cl [Compound 65, 7-[(R)-2-amino-3-methoxypropyl]-8-chloro-4-(furfurylamino)-3,6-dithia-2-azabicyclo[3.3.0]octa-1,4,7-triene] | 0.101 to 0.5 µM | 0.501 to 5 µM |
| Cc1c(C[C@H](C)N)sc2c(NCc3ccccc3)snc12 [Compound 5, 7-[(S)-2-aminopropyl]-4-benzylamino-8-methyl-3,6-dithia-2-azabicyclo[3.3.0]octa-1,4,7-triene] | 0.501 to 5 µM | 5 to 10 µM |
| N[C@H](Cc1sc2c(NCc3ccco3)snc2c1Cl)C(F)F [Compound 101, 7-[(R)-2-amino-3,3-difluoropropyl]-8-chloro-4-(furfurylamino)-3,6-dithia-2-azabicyclo[3.3.0]octa-1,4,7-triene] | 0.501 to 5 µM | 0.501 to 5 µM |
| C[C@H](N)Cc1sc2c(NCc3cccs3)snc2c1C(F)(F)F [Compound 35, 7-[(S)-2-aminopropyl]-4-thenylamino-8-(trifluoromethyl)-3,6-dithia-2-azabicyclo[3.3.0]octa-1,4,7-triene] | 0.501 to 5 µM | 0.501 to 5 µM |
| C[C@H](N)Cc1sc2c(NCc3cccs3)snc2c1C1CC1 [Compound 20, 7-[(S)-2-aminopropyl]-8-cyclopropyl-4-thenylamino-3,6-dithia-2-azabicyclo[3.3.0]octa-1,4,7-triene] | 10 to 40 µM | 10 to 40 µM |
| FC(F)(F)c1csc2c(NCc3ccco3)snc12 [Compound 82, (furfuryl){8-(trifluoromethyl)-3,6-dithia-2-azabicyclo[3.3.0]octa-1,4,7-trien-4-yl}amine] | 10 to 40 µM | 10 to 40 µM |
| N[C@H](Cc1sc2c(NCc3cccs3)snc2c1Cl)CC(F)F [Compound 69, 7-[(S)-2-amino-4,4-difluorobutyl]-8-chloro-4-thenylamino-3,6-dithia-2-azabicyclo[3.3.0]octa-1,4,7-triene] | 10 to 40 µM | 10 to 40 µM |
| C[C@H](N)Cc1sc2c(NCc3cccs3)snc2c1O [Compound 27, 7-[(S)-2-aminopropyl]-4-thenylamino-3,6-dithia-2-azabicyclo[3.3.0]octa-1,4,7-trien-8-ol] | 10 to 40 µM | 10 to 40 µM |
| Brc1csc2c(NCc3cccs3)snc12 [Compound 113, (thenyl)(8-bromo-3,6-dithia-2-azabicyclo[3.3.0]octa-1,4,7-trien-4-yl)amine] | 10 to 40 µM | 10 to 40 µM |
| N[C@H](Cc1sc2c(NCc3cccs3)snc2c1Br)CC(F)(F)F [Compound 39, 7-[(S)-2-amino-4,4,4-trifluorobutyl]-8-bromo-4-thenylamino-3,6-dithia-2-azabicyclo[3.3.0]octa-1,4,7-triene] | 0.501 to 5 µM | 0.501 to 5 µM |
| N[C@H](Cc1sc2c(NCc3ccco3)snc2c1Br)CC(F)(F)F [Compound 41, 7-[(S)-2-amino-4,4,4-trifluorobutyl]-8-bromo-4-(furfurylamino)-3,6-dithia-2-azabicyclo[3.3.0]octa-1,4,7-triene] | 0.501 to 5 µM | 0.501 to 5 µM |

More lines, now with the values ahead:

| IC50 (total ATXN3 protein) | IC50 [1] | Compound |
| --- | --- | --- |
| 0.501 to 5 µM | 0.501 to 5 µM | Cc1c(C[C@@H](N)CO)sc2c(NCc3cccs3)snc12 [Compound 37, (R)-2-amino-3-(8-methyl-4-thenylamino-3,6-dithia-2-azabicyclo[3.3.0]octa-1,4,7-trien-7-yl)-1-propanol] |
| 0.501 to 5 µM | 5 to 10 µM | N[C@H](Cc1sc2c(NCc3cccs3)snc2c1Cl)C(CO)CO [Compound 89, 2-{(R)-1-amino-2-(8-chloro-4-thenylamino-3,6-dithia-2-azabicyclo[3.3.0]octa-1,4,7-trien-7-yl)ethyl}-1,3-propanediol] |
| 0.101 to 0.5 µM | 0.101 to 0.5 µM | N[C@@H](CF)Cc1sc2c(NCc3cccs3)snc2c1Cl [Compound 47, 7-[(R)-2-amino-3-fluoropropyl]-8-chloro-4-thenylamino-3,6-dithia-2-azabicyclo[3.3.0]octa-1,4,7-triene] |
| 0.501 to 5 µM | 0.501 to 5 µM | C#C[C@H](N)Cc1sc2c(NCc3cccs3)snc2c1C [Compound 54, 7-[(R)-2-amino-3-butynyl]-8-methyl-4-thenylamino-3,6-dithia-2-azabicyclo[3.3.0]octa-1,4,7-triene] |
| 5 to 10 µM | 0.501 to 5 µM | C[C@H](F)[C@H](N)Cc1sc2c(NCc3ccc(F)s3)snc2c1Cl [Compound 96, 7-[(2R,3S)-2-amino-3-fluorobutyl]-8-chloro-4-{[(5-fluoro-2-thienyl)methyl]amino}-3,6-dithia-2-azabicyclo[3.3.0]octa-1,4,7-triene] |
| 0.501 to 5 µM | 0.501 to 5 µM | N[C@@H](CF)Cc1sc2c(NCc3nccs3)snc2c1Br [Compound 104, 7-[(R)-2-amino-3-fluoropropyl]-8-bromo-4-{[(1,3-thiazol-2-yl)methyl]amino}-3,6-dithia-2-azabicyclo[3.3.0]octa-1,4,7-triene] |
| 10 to 40 µM | 10 to 40 µM | C[C@H](N)C(O)c1sc2c(NCc3cccs3)snc2c1Br (stereo partly drawn) [Compound 103, (2S)-2-amino-1-{6-bromo-3-[(thiophen-2-ylmethyl)amino]thieno[3,2-c][1,2]thiazol-5-yl}propan-1-ol] |
| 0.501 to 5 µM | 0.501 to 5 µM | N[C@H](Cc1sc2c(NCc3cccs3)snc2c1Cl)CC1CC1 [Compound 58, 7-[(S)-2-amino-3-cyclopropylpropyl]-8-chloro-4-thenylamino-3,6-dithia-2-azabicyclo[3.3.0]octa-1,4,7-triene] |
| 0.101 to 0.5 µM | 0.501 to 5 µM | Cc1c(C[C@@H](N)[C@H](C)F)sc2c(NCc3cccs3)snc12 [Compound 72, 7-[(2R,3S)-2-amino-3-fluorobutyl]-8-methyl-4-thenylamino-3,6-dithia-2-azabicyclo[3.3.0]octa-1,4,7-triene] |
| 1e-05 to 0.1 µM | 1e-05 to 0.1 µM | N[C@@H](CO)Cc1sc2c(NCc3ccco3)snc2c1Br [Compound 60, (R)-2-amino-3-{8-bromo-4-(furfurylamino)-3,6-dithia-2-azabicyclo[3.3.0]octa-1,4,7-trien-7-yl}-1-propanol] |
| 0.101 to 0.5 µM | 0.101 to 0.5 µM | COC[C@H](N)Cc1sc2c(NCc3ccco3)snc2c1Br [Compound 63, 7-[(R)-2-amino-3-methoxypropyl]-8-bromo-4-(furfurylamino)-3,6-dithia-2-azabicyclo[3.3.0]octa-1,4,7-triene] |
| 0.101 to 0.5 µM | 0.501 to 5 µM | N[C@@H](CO)Cc1sc2c(NCc3cccs3)snc2c1Cl [Compound 43, (R)-2-amino-3-(8-chloro-4-thenylamino-3,6-dithia-2-azabicyclo[3.3.0]octa-1,4,7-trien-7-yl)-1-propanol] |
| 5 to 10 µM | 10 to 40 µM | Cc1c(C[C@@H](N)[C@@H](C)F)sc2c(NCc3cccs3)snc12 [Compound 73, 7-[(2R,3R)-2-amino-3-fluorobutyl]-8-methyl-4-thenylamino-3,6-dithia-2-azabicyclo[3.3.0]octa-1,4,7-triene] |
| 0.501 to 5 µM | 0.101 to 0.5 µM | COC[C@H](N)Cc1sc2c(NCc3cccs3)snc2c1Br [Compound 62, 7-[(R)-2-amino-3-methoxypropyl]-8-bromo-4-thenylamino-3,6-dithia-2-azabicyclo[3.3.0]octa-1,4,7-triene] |
| 0.501 to 5 µM | 0.501 to 5 µM | COC[C@H](N)Cc1sc2c(NCc3cccs3)snc2c1C [Compound 64, 7-[(R)-2-amino-3-methoxypropyl]-8-methyl-4-thenylamino-3,6-dithia-2-azabicyclo[3.3.0]octa-1,4,7-triene] |
| 0.101 to 0.5 µM | 0.101 to 0.5 µM | N[C@H](Cc1sc2c(NCc3ccco3)snc2c1Br)CC1CC1 [Compound 61, 7-[(S)-2-amino-3-cyclopropylpropyl]-8-bromo-4-(furfurylamino)-3,6-dithia-2-azabicyclo[3.3.0]octa-1,4,7-triene] |
| 0.501 to 5 µM | 0.501 to 5 µM | N[C@H](Cc1sc2c(NCc3cccs3)snc2c1Cl)C(F)F [Compound 42, 7-[(R)-2-amino-3,3-difluoropropyl]-8-chloro-4-thenylamino-3,6-dithia-2-azabicyclo[3.3.0]octa-1,4,7-triene] |
